For the data set the following is noted: 295 K; for surface tension liquid-gas: Maximal bubble pressure; for mass density / viscosity: 101.33 kPa, Liquid; for mass density: Buoyancy - hydrostatic balance with magnetic suspension - one sinker; for viscosity: Concentric cylinders viscometry.

± gives the expanded uncertainty stated by the source.

With `OCCO` [1,2-ethanediol], the surface tension liquid-gas (in general, the work needed to enlarge the surface of a liquid by unit area) was determined as 47.95 ± 2.4 mN/m; the mass density (usually the mass of a sample divided by its volume) is recorded as 1120.7 ± 22 kg/m3; the viscosity (usually the resistance of a fluid to flow) was determined as 21.26 ± 3.1 mPa·s.
The corresponding values for `OCC(O)CO` [glycerol] are 62.87 ± 1.4 mN/m, 1267.4 ± 25 kg/m3 and 1499.5 ± 190 mPa·s.

The values above are taken from the NIST ThermoML archive (doi:10.1016/j.fluid.2008.08.015).
